According to patent US10457709B2, “Antimicrobial peptides, their variants and uses” (priority 2015, dated 2019):
Square brackets hold non-standard residues; d marks the D form. Ends that are not written are not given here. Peptide text beside a SMILES is read from it.

What was measured:
[1] = up to 45° C. for over 14 days; radial diffusion assay
Protocol: FIG. 8a. […] Antibacterial activity was tested by aliquoting 20 μg of peptides incubated at different temperature and activity was measured by zone of inhibition. Peptides at −20° C. served as control.
(§1) FIG. 8b. Thermostability of the chain peptides 201 (A-D) and 204 (E-H) tested at various temperatures over a period of 14 days by radial diffusion assay. Antibacterial activity was tested by aliquoting 20 μg of peptides incubated at different temperature and activity was measured by zone of inhibition. Peptides at −20° C. served as control.
as §1, with “8c.” for “8b.”, “306” for “201”, “308” for “204”
(§2) Thermal stability was evaluated by diluting peptides to the concentration of 2 mg/ml in PBS buffer (pH 7.4) and incubating at different temperatures, such as +4° C., 25° C. (RT), 37° C. and 45° C., peptides stored at −20° C. were used as control. After each time interval, 100 μl (2 mg/ml) of peptides were taken and stored at −20° C. for radial diffusion assay to determine the antibacterial activity (FIG. 8). Peptides were also tested by diluting them at different pH values starting from pH 4 to 9. The effect of NaCl on the antimicrobial activity was tested by adding different concentrations (50, 100 and 200 mM) of NaCl to MH medium and the minimum inhibitory concentrations were tested against 4 ATCC bacterial strains.

human erythrocytes = type: cell-based
Protocol: In hemolysis assays, the ability of peptides at 128 μg/ml concentration to lyse human erythrocytes to release hemoglobin was measured. The peptides described here preferably have low hemolytic activity (0.2 to 3.8% hemolysis) in mammal body. […] These peptides are useful as antimicrobial drugs as they show little or no side effects at concentrations needed to kill bacteria.
Minimum inhibition concentrations (MICs) were tested by microbroth dilution method and Chain 104, 105 and 109 inhibited the growth of Escherichia coli (ATCC 25922), Staphylococcus aureus (ATCC 25923), Klebsiella pneumoniae (ATCC 10031) and Pseudomonas aeruginosa (ATCC 27853) between 1-8 μg/ml respectively (Tables 3a, 3b and 3c). The membranolytic activities of the peptides were tested by measuring the release of hemoglobin from erythrocytes of fresh blood donated by voluntiers. Hemoglobin levels were determined spectrometrically by taking OD at 540 nm by following the protocol of Schmidtchen et al., 2011.

[2] = pH 4 to 9; radial diffusion assay
Protocol: FIG. 9a. pH stability of chain peptides 104 and 105 was determined by radial diffusion assay (RDA). Different pH ranging from 4-9 was used to check the zone of inhibition.
FIG. 9b. pH stability of chain peptides 201 and 204 was determined by radial diffusion assay (RDA). Different pH ranging from 4-9 was used to check the zone of inhibition.
FIG. 9c. pH stability of chain peptides 306 and 308 was determined by radial diffusion assay (RDA). Different pH ranging from 4-9 was used to check the zone of inhibition.
as §2

[3] = test system: Escherichia coli (ATCC 25922); experiment: microbe, parasite or virus in culture; type: cell-based; details: ATCC 25922
Protocol: (§3) Minimum inhibition concentrations (MICs) were determined against Escherichia coli (ATCC 25922), Staphylococcus aureus (ATCC 25923), Klebsiella pneumoniae (ATCC 10031) and Pseudomonas aeruginosa (ATCC 27853). Also clinical strains of E. coli, K. pneumoniae, E. cloacae, P. aeruginosa, Serratia marcescens, Proteus mirabilis, S. pneumoniae, Acinetobacter baumannii, A. johnsonii and S. aureus were used for MICs assays. Additionally, clinical strains of yeast including Candida albicans, C. glabrata, C. parapsilosis and C. quillermondiae were used. The susceptibility of these microorganisms to Chain peptides were determined using micro broth dilution assay. Colonies of the respective microorganism from Muller Hinton (MH) agar plates incubated overnight were suspended in MH broth media and final concentration of microorganism was adjusted to 5.0×10^5 cfu/ml. An aliquot of 10 μl of each Chain peptide, or gentamicin, tetracycline as reference antibiotics were added in differing concentrations along with 90 μl of bacterial suspension to 96 well polypropylene plates and incubated at 37° C. for 20 to 24 hours. Concentrations of Chain peptides and reference antibiotics ranged from 0.125 to 128 μg/ml and the MICs were recorded as the lowest concentration with no visual growth of bacteria. Similarly, antifungal MICs were tested in Potato dextrose broth.

[4] = test system: Pseudomonas aeruginosa (ATCC 27853); experiment: microbe, parasite or virus in culture; type: cell-based; details: ATCC 27853
Protocol: as §3

[5] = test system: Staphylococcus aureus (ATCC 25923); experiment: microbe, parasite or virus in culture; type: cell-based; details: ATCC 25923
Protocol: as §3

[6] = test system: Klebsiella pneumoniae (ATCC 10031); experiment: microbe, parasite or virus in culture; type: cell-based; details: ATCC 10031
Protocol: as §3

S. aureus RN4220 = type: cell-based, Staphylococcus aureus; details: antibiotic sensitive strain S. aureus RN4220
Protocol: as §3
(§4) Peptides Chain 104, Chain 105, Chain 201, Chain 308, Chain 310 were tested against antibiotic-sensitive strains of S. aureus RN4220 and methicillin resistant strains of S. aureus COL (MRSA). Chain peptides comprising of either L- or D-form amino acids were tested against these bacteria, and the D-form peptides were found have better activity compared to L-form (Table 6). Synergistic activity of chain peptides along with Ertapenem (4 μg/ml) was tested to know whether it will influence the activity against MRSA strains. […] Chain 310 has the best antibacterial activity against the MRSA strains with a MIC of 0.06 & 0.03 μg/ml along with Ertapenem (4 μg/ml) for both forms of L and D-peptides (Table 6).

S. aureus COL (MRSA) = type: cell-based, Staphylococcus aureus
Protocol: as §3, §4

[7] = test system: MRSA strains (S. aureus COL); experiment: MIC, synergistic activity with Ertapenem (4 μg/ml); type: cell-based, Staphylococcus aureus; details: S. aureus COL, synergistic activity with 4 μg/ml Ertapenem
Protocol: as §3, §4

Molecule | Thermostability (antibacterial activity retained) [1] | Side effects to humans as tested by hemolysis assay (human erythrocytes) | pH stability (antibacterial activity retained) [2] | Minimum inhibitory concentration, Escherichia coli (ATCC 25922) [3] [µg/mL] | Minimum inhibitory concentration, Pseudomonas aeruginosa (ATCC 27853) [4] [µg/mL] | Minimum inhibitory concentration, Staphylococcus aureus (ATCC 25923) [5] [µg/mL] | Minimum inhibitory concentration, Klebsiella pneumoniae (ATCC 10031) [6] [µg/mL] | Minimum inhibitory concentration (MIC), S. aureus RN4220 (S. aureus RN4220) [µg/mL] | Minimum inhibitory concentration (MIC), S. aureus COL (MRSA) (S. aureus COL (MRSA)) [µg/mL] | Minimum inhibitory concentration (MIC), S. aureus COL + 4 μg/ml Ertapenem [7] [µg/mL]
RKWRAMIRLHAKRLRK [Chain104] | not hindered | little side effects | not hindered |  |  |  |  |  |  | 
KRKWRWLFKKL [Chain310] |  | little side effects |  | 4 | 1 | 8 | 16 |  |  | 
RLKWFLLFRKR [Chain308] | not hindered | little side effects | not hindered | 1 | 2 | 4 | 4 |  |  | 
WWRLHAKWKLW [Chain109] |  | little side effects |  |  |  |  |  |  |  | 
KWIVWRWRFKR [Chain201] | not hindered | little side effects | not hindered | 2 | 8 | 4 | 8 |  |  | 
RLKRWRLFRKR [Chain306] | not hindered |  | not hindered | 8 | 64 | 2 | >128 |  |  | 
RLKWFWLFRKR [Chain307] |  | little side effects |  | 8 | 1 | 4 | 16 |  |  | 
RKWRAMIRLHAKWLRK [Chain105] | not hindered | little side effects | not hindered |  |  |  |  |  |  | 
RRLIWRRFKWLR [Chain204] | not hindered | little side effects | not hindered | 2 | 4 | 16 | 32 |  |  | 
CC[C@@H](C)[C@@H](NC(=O)[C@@H](CCSC)NC(=O)[C@@H](C)NC(=O)[C@@H](CCCNC(=N)N)NC(=O)[C@@H](Cc1c[nH]c2ccccc12)NC(=O)[C@@H](CCCCN)NC(=O)[C@H](N)CCCNC(=N)N)C(=O)N[C@H](CCCNC(=N)N)C(=O)N[C@H](CC(C)C)C(=O)N[C@H](Cc1c[nH]cn1)C(=O)N[C@H](C)C(=O)N[C@H](CCCCN)C(=O)N[C@H](CCCNC(=N)N)C(=O)N[C@H](CC(C)C)C(=O)N[C@H](CCCNC(=N)N)C(=O)N[C@H](CCCCN)C(=O)O [104 D] (H-[dR][dK][dW][dR][dA][dM][dI][dR][dL][dH][dA][dK][dR][dL][dR][dK]-OH) |  |  |  |  |  |  |  | 64 | 32 | 4
RKWRAMIRLHAKWLRK [Compound 105] |  |  |  |  |  |  |  | >64 | >64 | 0.5
